Measured values from patent US12702667B2, “Focal adhesion kinase inhibitor as a therapeutic agent in diabetes” (University of Pittsburgh—Of the Commonwealth System of …, priority 2017, dated 2026).
“Also recorded” adds a separate entry of the source.

How the values were obtained:
pancreatic acinar cells = experiment: Acinar lineage tracing (tomato-red label, immunofluorescence) in E1aCreERT2;R26-CAG^Tomato mice treated with FAKi; format: in vivo
Excerpt: Rosa26^CAGTomato (B6.Cg-Gt(Rosa)26Sortm9(CAG-tdTomato)Hze) (Madisen et al., 2010), FAK^fl/fl (Cai et al., 2012), and wild type C57bl/6 mice were purchased from The Jackson Laboratory (Bar Harbor, ME). PdxCre (Criscimanna et al., 2011; Hingorani et al., 2003) mice were obtained from the Mouse Models of Human Cancer Consortium. The E1aCreERT2 strain (Criscimanna et al., 2014; Criscimanna et al., 2011) was generated as previously described (Ji, B. et al., Robust acinar cell transgene expression of CreErT via BAC recombineering, Genesis, 46, 390-395et al (2008)). The FAK-floxed strain (B6; 129X1-Ptk2tm1Lfr/Mmucd) was obtained from the Mutant Mouse Regional Resource Centers (MMRRC).
Immunofluorescence Analysis: Tissue processing, immunostaining, and quantification analysis were performed as previously described (Criscimanna et al., 2011; incorporated by reference in its entirety herein). Imaging was performed using either ZEISS Axiolmager.Z1 or ZEISS LSM 710 microscopes.
Tamoxifen treatment: E1aCreERT;R26-CAG^Tomato mice were injected intraperitoneally with 2 mg tamoxifen on two consecutive days.
(§1) FAKi treatment: FAKi (PF562271; 50 mg/kg) was given orally to mice twice a day for 3 weeks.
Cre-recombinase activity was specifically targeted to the pancreatic acinar cells and their potential progenies. […] The mouse strains are E1aCreERT2;R26-CAG^Tomato, created by crossing the E1aCreERT2 into R26^Tomato mice. Pancreatic acinar cells are exclusively tomato-positive. Mice were treated with PF562271 FAKi. The indicated area in FIG. 2B highlights tomato-negative endocrine islet of Langerhans.

[1] = test system: STZ-treated E1aCreERT2; R26^Tomato mice; experiment: Induced diabetes mouse model (streptozotocin), blood glucose and islet immunostaining after FAKi treatment; format: in vivo; settings: for acinar-derived, insulin-producing cells among beta cells that survived STZ treatment: 7 weeks after STZ treatment and 3 weeks after FAKi treatment
Procedure: as §1
E1aCreERT2; R26^Tomato mice were treated with streptozotocin (STZ), a widely used compound that kills β-cells and, thus, induces diabetes in mice. […] Thus, in the DMSO-treated cohort, recovery was detected in 3/10 mice. […]
The mice were treated for two additional weeks following blood glucose normalization. The bar embedded in the graph of FIG. 5 indicates the duration of FAKi treatment. […] FAKi (50 mg/kg) was given orally to mice twice a day for 3 weeks.

SMILES: CN(c1ncccc1CNc1nc(Nc2ccc3c(c2)CC(=O)N3)ncc1C(F)(F)F)S(C)(=O)=O.O=S(=O)(O)c1ccccc1 [PF562271]
- conversion of acinar cells into insulin-producing cells (tomato-red labeled insulin-expressing cells) (pancreatic acinar cells; 50 mg/kg orally twice a day for three weeks): induces conversion of acinar cells into insulin-producing cells
- Glut2 expression of the acinar-derived insulin-positive cells (pancreatic acinar cells; FAKi treated): also expressed Glut2
- amylase expression of the acinar-derived insulin-positive cells (pancreatic acinar cells; treatment for three weeks): no longer express amylase; also recorded: no longer expressed amylase
- location of the acinar-derived insulin-positive cells (pancreatic acinar cells; treatment for three weeks): embedded within preexisting islets
- acinar-derived, insulin-producing cells among beta cells that survived STZ treatment [1]: could be detected among pre-existing beta-cells
- acinar-derived, insulin-producing cells among beta cells that survived STZ treatment ([1]; listed as FAKi): could be detected among pre-existing beta cells
- mice whose blood glucose levels decreased to normal levels ([1]; STZ-treated mice, 50 mg/kg orally twice a day for 3 weeks, DMSO cohort recovery 3/10): 9/10
- blood glucose after FAKi treatment ceased ([1]; STZ-treated mice, after 3 weeks of 50 mg/kg orally twice a day): remained at normal levels up to a month
- blood glucose ([1]; STZ-treated mice, one week after FAKi treatment (mice treated for 3 weeks)): decrease in blood glucose to normal levels
